Reference: US20210210190A1, “Diagnostic Method” (Amazentis SA, priority 2019, published 2021)
Values joined by “and” are separate entries in the source; they are usually repeats but may differ in a detail not shown here. Identical values can stand only once.

Experiments:
[1] = Study of pomegranate juice and oral urolithin A: urolithin A glucuronide in dried blood spots (Example 3); type: in vivo, human; settings: dried blood spot, 24 hours after 500 mg Urolithin A softgel capsule; individual subjects 1-7; listed as UA
Description: A study was conducted in seven subjects. At the beginning of the study a sample of capillary blood via a finger prick was taken from each subject and 15-20 uL of whole blood was dried onto a dried blood sample (DBS) filter paper sample card (Whatman, Little Chalfont, Buckinghamshire, UK). A minimum of 2 spots per sampling were collected for each time-point. At T0 i.e. baseline sample, subjects ingested 80 ml pomegranate juice (freshly prepared/). At 24 hours following pomegranate juice intake, a further dried blood spot sample was taken and 15-20 uL of whole blood was dried onto a DBS filter paper card. Following this, subjects ingested 500 mg of Urolithin A in a softgel capsule and then at 48 hours (or 24 hours following UA intake), a further dried blood spot sample was taken and 15-20 uL of whole blood was dried onto DBS filter paper sample card.
This analytical method was developed to analyse whole blood spot samples collected on dry blood spot sample cards (DBS Filter card) in Example 3.
Each dried blood spot was punched from cards using a 6 mm diameter puncher and transferred into a tube. Afterwards 150 μL of methanol containing the internal standard was added. […]
The quantification of UA-glucuronide was performed by column separation with reversed-phase chromatography followed by detection with triple-stage quadrupole MS/MS in the selected reaction monitoring mode.

[2] = Single ascending dose study in healthy elderly subjects: Urolithin A glucuronide in urine (Example 6, Part A); type: in vivo, human; settings: mean ± standard error
Description: A single (Part A) and multiple (Part B) dose study of urolithin A was conducted to evaluate the safety, tolerability, pharmacokinetics and pharmacodynamics profile in healthy elderly subjects.
Part A: The study was a double-blind, randomized, single ascending doses, study in 24 healthy elderly male and female volunteers. Each subject was randomized for two subsequent doses in three cohorts.
1100 mg soft gel capsule containing 250 mg of urolithin A (as described in Example 2 above). Soft gel capsules were blister-packed in bulk, Labelling was in accordance with local regulatory specifications and requirements.
Part A: Single oral dose administration on D1 of each period according to the randomisation. The administration took place around 8:00 am with around 200 mL tap water, in sitting position, and under fasting conditions.
Cohort 1 (8 subjects): 250 mg urolithin A (6 subjects) or placebo (2 subjects) capsule soft gel formulation then 2000 mg urolithin A or placebo capsule soft gel formulation. Cohort 2 (8 subjects): 500 mg urolithin A (6 subjects) or placebo (2 subjects) capsule soft gel formulation. Cohort 3 (8 subjects): 1000 mg urolithin A (6 subjects) or placebo (2 subjects) capsule soft gel formulation.
In Part A of the study, total urine was collected during the following intervals: 0-4 h, 4-8 h, 8-12 h, 12-24 h and 24-36 h post-dose. The collected urine volume of each collection period was carefully measured by weight and recorded in the eCRF, as well as the exact start and stop time of the collection interval. Each fraction of collected urine was homogenized and 2 aliquots of 5 mL per interval were kept and stored below −80° C. Following a protocol amendment to extend the blood sampling scheme from 36 to 96 h post-dose, additional spot urine samples were taken 72 and 96 h post-dose but urine was not collected quantitatively.
The concentrations of Urolithin A and its metabolites in urine was determined using validated LC-MS/MS assays. The limit of quantification (LOQ) was 10 ng/mL for Urolithin A in urine and 50 ng/mL for Urolithin A glucuronide and Urolithin A sulphate in urine.

O=c1oc2cc(O)ccc2c2ccc(O)cc12 [Urolithin A]
500 mg single UA dosing 24 h UA levels [1]: 153 ng/mL and 93.0 ng/mL and 98.0 ng/mL and 125 ng/mL and 134 ng/mL and 173 ng/mL
Urolithin A glucuronide in urine ([2]; 250 mg dose, Predose): 4,114 ± 1,261 ng/mL
Urolithin A glucuronide in urine ([2]; 250 mg dose, T0-T4 h): 8,536 ± 1,394 ng/mL
Urolithin A glucuronide in urine ([2]; 250 mg dose, T4 h-T8 h): 31,617 ± 7,637 ng/mL
Urolithin A glucuronide in urine ([2]; 250 mg dose, T8 h-T12 h): 40,453 ± 9,275 ng/mL
Urolithin A glucuronide in urine ([2]; 250 mg dose, T12 h-T24 h): 62,817 ± 8,454 ng/mL
Urolithin A glucuronide in urine ([2]; 250 mg dose, T24 h-T36 h): 33,962 ± 8,708 ng/mL
Urolithin A glucuronide in urine ([2]; 500 mg dose, Predose): 4,114 ± 1,261 ng/mL
Urolithin A glucuronide in urine ([2]; 500 mg dose, T0-T4 h): 40,167 ± 6,802 ng/mL
Urolithin A glucuronide in urine ([2]; 500 mg dose, T96 spot urine): 8,720 ± 3,113 ng/mL
Urolithin A glucuronide in urine ([2]; 500 mg dose, T4 h-T8 h): 86,758 ± 12,051 ng/mL
Urolithin A glucuronide in urine ([2]; 500 mg dose, T8 h-T12 h): 63,800 ± 9,043 ng/mL
Urolithin A glucuronide in urine ([2]; 500 mg dose, T12 h-T24 h): 81,125 ± 10,792 ng/mL
Urolithin A glucuronide in urine ([2]; 500 mg dose, T24 h-T36 h): 44,242 ± 4,631 ng/mL
Urolithin A glucuronide in urine ([2]; 500 mg dose, T72 h spot urine): 15,706 ± 3,751 ng/mL
Urolithin A glucuronide in urine ([2]; 1000 mg dose, Predose): 4,114 ± 1,261 ng/mL
Urolithin A glucuronide in urine ([2]; 1000 mg dose, T0-T4 h): 70,492 ± 12,094 ng/mL
Urolithin A glucuronide in urine ([2]; 1000 mg dose, T96 spot urine): 16,335 ± 3,897 ng/mL
Urolithin A glucuronide in urine ([2]; 1000 mg dose, T4 h-T8 h): 76,417 ± 10,635 ng/mL
Urolithin A glucuronide in urine ([2]; 1000 mg dose, T8 h-T12 h): 64,967 ± 8,075 ng/mL
Urolithin A glucuronide in urine ([2]; 1000 mg dose, T12 h-T24 h): 107,983 ± 17,683 ng/mL
Urolithin A glucuronide in urine ([2]; 1000 mg dose, T24 h-T36 h): 59,575 ± 9,560 ng/mL
Urolithin A glucuronide in urine ([2]; 1000 mg dose, T72 h spot urine): 29,412 ± 5,717 ng/mL
Urolithin A glucuronide in urine ([2]; 2000 mg dose, Predose): 4,114 ± 1,261 ng/mL
Urolithin A glucuronide in urine ([2]; 2000 mg dose, T0-T4 h): 39,500 ± 6,033 ng/mL
Urolithin A glucuronide in urine ([2]; 2000 mg dose, T96 spot urine): 38,487 ± 12,858 ng/mL
Urolithin A glucuronide in urine ([2]; 2000 mg dose, T4 h-T8 h): 65,317 ± 10,853 ng/mL
Urolithin A glucuronide in urine ([2]; 2000 mg dose, T8 h-T12 h): 50,450 ± 5,793 ng/mL
Urolithin A glucuronide in urine ([2]; 2000 mg dose, T12 h-T24 h): 114,817 ± 12,123 ng/mL
Urolithin A glucuronide in urine ([2]; 2000 mg dose, T24 h-T36 h): 60,533 ± 12,216 ng/mL
Urolithin A glucuronide in urine ([2]; 2000 mg dose, T72 h spot urine): 70,567 ± 17,054 ng/mL
